Measurements published in patent publication US20150147276A1, “NANOTHERAPEUTICS FOR DRUG TARGETING” (PRESIDENT AND FELLOWS OF HARVARD COLLEGE, priority 2012, published 2015).
“Also recorded” adds a separate entry of the source.

Tests used:
fibrin clots = molecular target: T1, fibrin clots (Homo sapiens, UniProt P02671+P02675+P02679); experiment: Microfluidic model of vascular embolism (fibrin clot lysis); format: biochemical; conditions: 50 ng/ml tPA, same flow conditions
T1 construct: purchased Enzyme Research Laboratories, IN (fibrinogen, α-thrombin); Cell Sciences, MA (plasminogen)
T1 sequence (P02671 36-629 limits assumed): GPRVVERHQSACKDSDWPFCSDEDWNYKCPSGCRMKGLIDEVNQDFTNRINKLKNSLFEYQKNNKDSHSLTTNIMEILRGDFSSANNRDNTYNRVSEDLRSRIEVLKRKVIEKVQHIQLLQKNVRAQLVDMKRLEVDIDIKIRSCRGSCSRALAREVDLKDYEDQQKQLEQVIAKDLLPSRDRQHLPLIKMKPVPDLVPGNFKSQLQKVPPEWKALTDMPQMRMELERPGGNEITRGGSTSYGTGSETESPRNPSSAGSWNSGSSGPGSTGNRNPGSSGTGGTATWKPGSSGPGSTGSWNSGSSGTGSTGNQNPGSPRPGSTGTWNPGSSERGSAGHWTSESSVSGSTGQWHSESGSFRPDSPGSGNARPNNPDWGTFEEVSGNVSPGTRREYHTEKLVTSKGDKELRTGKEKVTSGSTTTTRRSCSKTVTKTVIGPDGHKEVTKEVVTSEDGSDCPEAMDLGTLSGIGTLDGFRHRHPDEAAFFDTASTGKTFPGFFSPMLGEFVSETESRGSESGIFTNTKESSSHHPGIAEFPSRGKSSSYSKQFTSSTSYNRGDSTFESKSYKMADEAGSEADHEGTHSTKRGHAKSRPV
T1 sequence (P02675 45-491 limits assumed): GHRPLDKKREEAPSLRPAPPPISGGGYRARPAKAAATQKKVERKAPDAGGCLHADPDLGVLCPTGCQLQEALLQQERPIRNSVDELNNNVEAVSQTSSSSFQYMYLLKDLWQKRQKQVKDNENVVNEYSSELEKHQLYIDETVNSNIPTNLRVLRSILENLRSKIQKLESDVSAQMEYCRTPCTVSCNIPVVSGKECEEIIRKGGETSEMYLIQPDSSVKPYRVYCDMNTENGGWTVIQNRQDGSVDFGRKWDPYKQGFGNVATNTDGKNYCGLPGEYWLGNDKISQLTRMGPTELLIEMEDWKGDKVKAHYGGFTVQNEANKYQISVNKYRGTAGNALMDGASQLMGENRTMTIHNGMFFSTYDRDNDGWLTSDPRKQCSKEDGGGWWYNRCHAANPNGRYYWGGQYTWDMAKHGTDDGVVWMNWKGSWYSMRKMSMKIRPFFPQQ
T1 sequence (P02679 27-437 isoform P02679-2 limits assumed): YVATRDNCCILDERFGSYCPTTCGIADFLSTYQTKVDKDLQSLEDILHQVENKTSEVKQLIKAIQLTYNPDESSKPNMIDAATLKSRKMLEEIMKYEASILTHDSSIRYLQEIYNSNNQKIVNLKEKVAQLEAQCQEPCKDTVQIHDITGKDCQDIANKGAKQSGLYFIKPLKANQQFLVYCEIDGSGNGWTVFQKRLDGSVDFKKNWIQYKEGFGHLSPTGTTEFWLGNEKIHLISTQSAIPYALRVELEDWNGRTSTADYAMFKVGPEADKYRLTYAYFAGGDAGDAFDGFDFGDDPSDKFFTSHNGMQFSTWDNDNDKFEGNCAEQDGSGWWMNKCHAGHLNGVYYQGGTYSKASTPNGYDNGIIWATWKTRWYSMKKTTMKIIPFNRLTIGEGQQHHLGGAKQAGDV
Excerpt: Microfluidic devices with a narrowed cross-sectional area (80 μm high×0.5 mm wide×200 mm long) were fabricated using soft lithography as described above. Fibrin clots formed as described below that were infused into the main channel lodged and obstructed the flow in these smaller channels. A solution of tPA or tPA coated SA-NTs was infused at a flow rate corresponding to a shear stress of 10 dyne/cm2 in an unobstructed channel. Prior to infusion of the tPA solutions, bovine plasminogen (Cell Sciences, MA) was added to a final concentration of 2.2 μM (30). During the fibrinolysis process, the fibrin clot sizes were monitored in real-time (images acquired every 30 sec) on an inverted Zeiss microscope.
(§1) Fibrin clots were formed by adding CaCl2 (20 mM) and human α-thrombin (1 units/ml final concentrations, Enzyme Research Laboratories, IN) to human fibrinogen (5 mg/ml, Enzyme Research Laboratories, IN), as previously described (23, 31). This solution was immediately added drop-wise to a solution of canola oil with Span-80 (0.05%). The emulsion was mixed at 350 rpm for 4 hr and centrifuged (500 g, 5 min), followed by repeated washing in ethanol and water. The diameter of the resulting fibrin beads was determined by optical microscopy to be ˜250 μm. By adjusting the mixing speed in the described protocol, fibrin beads of smaller defined sizes were produced.

[1] = tested on: thrombus in FeCl3-injured mesenteric arteries; experiment: Mouse ferric chloride arterial injury (thrombosis) model; format: in vivo; conditions: bolus, same tPA dose (50 ng)
Procedure: A previously described model was used with minor modifications (16). In brief, male C57BL/6 mice (3-4 weeks old) were anesthetized with 2.5% tribromoethanol (0.15 ml/10 g) and injected with fluorescently labeled platelets (calceinRed/Orange, ˜1×10^9 platelets/kg). An incision was made through the abdominal wall to expose the mesentery and arterioles (˜100 μm in diameter) were visualized using a Zeiss Axiovert 135-inverted microscope (objectives: 10× and 32×, Carl Zeiss Microlmaging, Inc.) and recorded on videotape. Whatman filter paper saturated with FeCl3 (10%) solution was applied topically for 5 min, which caused denudation of the endothelium. […] Following this bolus injection, the vessels were monitored until full occlusion occurred (blood flow stopped) and lasted for more than 10 seconds. The shear rate was calculated using an optical Doppler velocity meter (Microcirculation Research Institute, Texas A&M College of Medicine, College Station, Tex.) (17). […]

[2] = tested on: fibrin clots in pulmonary arteries; experiment: Ex vivo mouse pulmonary embolism model (lung ventilation-perfusion)
Procedure: as §1
6-8 week-old C57BL/6 male mice (Jackson Laboratory, Bar Harbor, Me.) were weighed and anesthetized with Avertin (200 mg/kg IP). The trachea was incised via surgical tracheotomy, and cannulated with a blunted 22G stainless steel needle tip. The lungs were subsequently ventilated at a rate of 60 breaths/min, with a Peak Inspiratory Pressure (Pip) of 10 cm H2O and a Positive End Expiratory Pressure (Peep) of 3 cmH2O with compressed air using a mouse ventilator (VCM-R, Hugo Sachs Elektroniks, Germany). Ex vivo ventilation and perfusion of the mouse lung was performed using an IL1 ex vivo mouse lung ventilation-perfusion system (Harvard Apparatus, Natick, Mass.), (32). Following initiation of mechanical ventilation, the chest was opened via thoracotomy, and heparin (100 IU) was injected into the right ventricle. […] A suture was placed around the pulmonary artery and aorta. Cannulae made from polyethylene tubing (PE90 (0.86 mm ID, 1.7 mm OD)) were placed in the pulmonary artery (PA) and left atrium (LA), and lungs were perfused with RPMI-1640 with 4% Bovine Albumin (PROBUMIN™ Reagent Grade, Billerica, Mass.) and 0.7 g NaCl/500 ml via a roller pump (ISM 834C, Ismatec SA, Switzerland) set at a constant flow rate of 0.5 ml/min in a recirculating system with a system volume of 6 ml. Perfusate and lung temperatures were maintained at 37° C. by housing the entire ex-vivo ventilation perfusion system inside a standard cell incubator without CO2 (Forma Scientific, Ohio). Humidity was maintained in the range […]. Pulmonary arterial and left atrial pressures and airway flow and pressures were recorded with dedicated Type 379 vascular pressure and DLP2.5 flow and MPX Type 399/2airway pressure transducers and TAM-A amplifiers (Hugo Sachs Elektroniks, Germany). Vascular pressures were zeroed at the mid lung level prior to each experiment and recorded using Polyview16© software (Grass Technologies, West Warwick, R.I.). Prior to injection of experimental fibrin clots (prepared as above), the measured pressures were allowed to stabilize and remain stable for a period of more than 10 minutes. A solution of fibrin clots suspended in perfusion medium was infused at a flow rate of 0.1 ml/min and mixed with the regular perfusion line entering the pulmonary artery. The fibrin clot suspension was infused until the pulmonary artery pressure increased to ˜three-fold higher than the baseline. The system was then allowed to equilibrate and remain stable for at least 10 minutes. Next, tPA-coated SA-NTs or free soluble tPA was added to the main perfusion line and circulated through the perfusion system. As in the microfluidic device experiments, when tPA was perfused, plasminogen was added to obtain a final concentration of 2.2 μM. Pulmonary artery and vein pressures were acquired continuously during the perfusion period. […]

tissue plasminogen activator [free tPA]
reduction in clot size (fibrin clots): < 5% | delay of time to full vascular occlusion [1]: did not produce any significant delay; also recorded: neither addition of free tPA, pre-dissociated tPA-NPs, nor heat-fused tPA-NP microaggregates (that do not dissociate in high shear) produced any detectable effects | effect on pulmonary artery pressure ([2]; 50 ng/ml): did not reduce pulmonary artery pressure | effect on pulmonary artery pressure ([2]; 50 ng/ml, listed as soluble tPA): failed to produce any significant response | effect on pulmonary artery pressure ([2]; 500 ng/ml (ten times higher dose)): did not reduce pulmonary artery pressure | effect on pulmonary artery pressure ([2]; 500 ng/ml (ten times higher dose), listed as soluble tPA): failed to produce any significant response | effect on pulmonary artery pressure ([2]; 5,000 ng/ml (100-fold higher dose)): produced similar effects
